Source: ChEMBL document CHEMBL1201862, “PubChem BioAssay data set” (2004)
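Where inhibition never reached the appropriate level, the endpoint shown equals the highest concentration tested. Otherwise, values were interpolated linearly from a five-concentration, 48-hour dose response in 96-well plates. The concentration for 50% growth inhibition is given as GI50.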 Active and inactive are the calls of the source. Cut-off read from the data, not from the text of the source: active = GI50 up to about 1.1 µM and inactive = higher.

Experiments:
Experiment in all cases: NCI-60 cell line screen, 48 h
HCC 2998 = tested on: HCC 2998
A498 = tested on: A498
HCT-116 = tested on: HCT-116
OVCAR-8 = tested on: OVCAR-8
DU-145 = tested on: DU-145
RXF 393 = tested on: RXF 393
OVCAR-3 = tested on: OVCAR-3
A549 = tested on: A549
NCI-H460 = tested on: NCI-H460
SF-539 = tested on: SF-539
NCI-H23 = tested on: NCI-H23
RPMI-8226 = tested on: RPMI-8226
MDA-MB-435 = tested on: MDA-MB-435
SK-MEL-5 = tested on: SK-MEL-5
EKVX = tested on: EKVX
NCI-H522 = tested on: NCI-H522
HT-29 = tested on: HT-29
NCI-H226 = tested on: NCI-H226
HOP-92 = tested on: HOP-92
SNB-75 = tested on: SNB-75

Measured: GI50

ClCCN1CCO/C1=N/c1ccc2c(c1)CCCC2
inactive: HCC 2998 14.1 µM | A498 6.92 µM | HCT-116 13.4 µM | OVCAR-8 5.13 µM | DU-145 15.7 µM | RXF 393 8.39 µM | OVCAR-3 13 µM | A549 13.8 µM | NCI-H460 18.8 µM | SF-539 4.81 µM | NCI-H23 8.95 µM | RPMI-8226 4.76 µM | MDA-MB-435 10.5 µM | SK-MEL-5 1.96 µM | EKVX 14 µM | NCI-H522 10.8 µM | HT-29 14.4 µM | NCI-H226 13.5 µM | HOP-92 11.2 µM | SNB-75 13.3 µM

Brc1ccc2[nH]cc(-c3nc(-c4c[nH]c5ccccc45)cs3)c2c1
inactive: HCC 2998 2.3 µM | A498 2.88 µM | HCT-116 2.53 µM | OVCAR-8 4.27 µM | DU-145 3.45 µM | RXF 393 5.48 µM | OVCAR-3 3.42 µM | A549 3.24 µM | NCI-H460 2.06 µM | SF-539 2.9 µM | NCI-H23 2.47 µM | RPMI-8226 3.18 µM | MDA-MB-435 3.88 µM | SK-MEL-5 1.6 µM | EKVX 2.46 µM | NCI-H522 1.91 µM | HT-29 1.85 µM | NCI-H226 2.59 µM | HOP-92 2.54 µM | SNB-75 10.4 µM
